# Measured values from PMC6260965 (Structure (London, England : 1993), 2018).
# pKi: −log10 of the molar value. Like-named read-outs stand apart in the source and are kept apart here.
# Experiments:
# NS3/4A protease D168A [1] = target: NS3/4A protease D168A (Hepatitis C virus genotype 1a, UniProt P27958, D1194A); test: biochemical; format: biochemical, HCV
# [2] = test system: NS3/4A protease Y56H/D168A; test: Enzyme inhibition assay, Y56H/D168A protease; format: biochemical, HCV; conditions: for loss in potency in enzyme inhibition assays: Y56H/D168A relative to WT protease
# NS3/4A protease Y56H = NS3/4A protease Y56H (Hepatitis C virus genotype 1a, UniProt P27958, Y1082H); test: Enzyme inhibition assay, Y56H protease; format: biochemical, HCV
# [3] = test system: NS3/4A protease Y56H/D168A versus sum of Y56H and D168A; test: Double mutant cycle analysis from inhibition constants; conditions: calculated from measured Ki; negative coupling
# NS3/4A protease D168A [4] = test: biochemical; format: biochemical, HCV; conditions: D168A relative to WT protease
# [5] = target: NS3/4A protease Y56H/D168A (Hepatitis C virus genotype 1a, UniProt P27958, D1194A/Y1082H); test: Enzyme inhibition assay, Y56H/D168A protease; format: biochemical, HCV
# [6] = test system: GT3 double substitution variant Y56H/Q168R; conditions: GT3 Y56H/Q168R selected in vitro; ref Ng et al., 2017; cited from earlier work
# [7] = test system: HCV Con1 (genotype 1b) reporter replicon, H77 NS3 protease region with Y56H/D168A; test: Cell-based drug susceptibility; conditions: Y56H/D168A compared to WT
# [8] = test system: HCV Con1 (genotype 1b) reporter replicon, H77 NS3 protease region with D168A; test: Cell-based drug susceptibility; conditions: D168A compared to WT
Structure (SMILES),loss in potency in enzyme inhibition assays [2],difference in ΔΔG for the double mutant compared to sum of the single mutants [3],potency loss in enzyme inhibition assays (NS3/4A protease D168A [4]) [fold],lower potency in replicon assays [7] [fold],other results
CCc1nc2ccc(OC)cc2nc1O[C@@H]1C[C@H]2C(=O)N[C@]3(C(=O)NS(=O)(=O)C4CC4)C[C@H]3/C=C\CCCCC[C@H](NC(=O)OC(C)(C)C)C(=O)N2C1 [5172-mcP1P3],200–400 fold,,,,"pKi (NS3/4A protease D168A [1]; read-out: inhibition constant (Ki), D168A variant): 7.08"
CC(C)(C)OC(=O)N[C@H]1CCCCC/C=C\[C@@H]2C[C@@]2(C(=O)NS(=O)(=O)C2CC2)NC(=O)[C@@H]2C[C@@H](OC(=O)N3Cc4cccc(F)c4C3)CN2C1=O [danoprevir],500 fold,~ 0.06 kcal/mol,200,,"pKi (NS3/4A protease Y56H): 8.52; pKi (NS3/4A protease D168A [1]): 6.70; pKi [5]: 6.28; additional reduction in potency with Y56H ([2]; Y56H/D168A relative to D168A, enzyme inhibition): 2.5 fold"
CC(C)(C)[C@@H]1NC(=O)O[C@@H]2CCC[C@H]2OC/C=C/C(F)(F)c2nc3ccccc3nc2O[C@@H]2C[C@@H](C(=O)N[C@]3(C(=O)NS(=O)(=O)C4(C)CC4)C[C@H]3C(F)F)N(C2)C1=O [glecaprevir],,,,,loss in potency [6]: ~1400 fold
C=C[C@@H]1C[C@]1(NC(=O)[C@@H]1C[C@@H]2CN1C(=O)[C@H](C(C)(C)C)NC(=O)O[C@@H]1C[C@H]1CCCCCc1nc3ccc(OC)cc3nc1O2)C(=O)NS(=O)(=O)C1CC1 [grazoprevir],2500 fold,1 to 2 kcal/mol,> 200,1923,potency loss in replicon assays [8]: over 100 fold
Cc1cnc(C(=O)N[C@H]2CCCCC/C=C\[C@@H]3C[C@@]3(C(=O)NS(=O)(=O)C3CC3)NC(=O)[C@@H]3C[C@@H](Oc4nc5ccccc5c5ccccc45)CN3C2=O)cn1 [paritaprevir],8500 fold,1 to 2 kcal/mol,,2941,
